From ChEMBL document CHEMBL6182836 (RSC Med Chem, 2025)
Activity calls are given as the source filed them. No cut-off for these calls is given here.

Tests used:
Cholinesterase [1] = target: Cholinesterase (Equus caballus, UniProt P81908)
Description: Inhibition of equine serum BuChE using butyrylthiocholine iodide as substrate measured for 30 mins by Ellman's method

Cortical neurone [2] = test: Neuroprotective activity against glutamate-induced excitotoxicity in Wistar rat primary cortical neurons assessed as cell death at 1 uM pretreated with glutamate followed by compound addition measured after 24 hrs by LDH assay relative to control; assay type: functional
[3] = Neurotoxicity in Wistar rat primary cortical neurons assessed as inhibition of cell viability incubated for 24 hrs by LDH assay; assay type: toxicity, cell-based, Cortical neurone; conditions: for IC50 at 24 h: Wistar, primary cortical neurons; for Activity: cortical neurone, 24 h
Acetylcholinesterase [4] = target: Acetylcholinesterase (Electrophorus electricus, UniProt O42275); test: Inhibition of electric eel AChE using acetylthiocholine iodide as substrate measured for 30 mins by Ellman's method
Cortical neurone [5] = test: Neuroprotective activity against glutamate-induced excitotoxicity in Wistar rat primary cortical neurons assessed as cell death at 1 uM pretreated with compound for 24 hrs followed by incubation with glutamate for 20 mins by LDH assay relative to control; assay type: functional; conditions: time 1460 min, 24.33 h
[6] = Neurotoxicity in Wistar rat primary cortical neurons assessed as cell viability at 0.001 to 100 uM incubated for 24 hrs by LDH assay; assay type: toxicity, cell-based; conditions: cortical neurone, dose 0.001-100 µM
Acetylcholinesterase [7] = target: Acetylcholinesterase (Homo sapiens, UniProt P22303); test: Inhibition of AChE (unknown origin)
Cholinesterase [8] = target: Cholinesterase (Homo sapiens, UniProt P06276); test: Inhibition of BChE (unknown origin)
in vitro = conditions: human, HepG2 cells
Description: Cytotoxicity against human HepG2 cells assessed as inhibition of cell growth incubated for 24 hrs by SRB assay

[9] = mouse, astrocyte, 24 h
Description: Blood-brain barrier transwell (BBB-T) permeability in mouse bEnd.3 cells (luminal side) to C57BL/6 mouse astrocyte (abluminal side) measured after 24 hrs by Transwell assay

[10] = Neuroprotective activity against glutamate-induced excitotoxicity in Wistar rat hippocampal neurons assessed as increase in intracellular ATP level pretreated with compound for 24 hrs followed by incubation with glutamate for 20 mins by CellTiter-Glo assay (reference value: 70 %); assay type: functional, Hippocampal neuron; conditions: time 1460 min; 24.33 h
Astrocyte [11] = test: Neuroprotective activity against glutamate-induced excitotoxicity in Wistar rat astrocytes co-cultured with neurons assessed as decrease in LDH release at 10 uM pretreated with compound for 24 hrs followed by glutamate addition for 20 mins by spectrophotometric analysis relative to control; assay type: functional; parameters: scale not given: the % may be the effect or the level left; conditions: time 1460 min, 24.33 h
[12] = Cytotoxicity against human HepG2 cells assessed as fold decrease in GI50 incubated for 24 hrs by SRB assay relative to tacrine; assay type: toxicity, cell-based; conditions: read-out: RatioGI50
[13] = Neuroprotective activity against glutamate-induced excitotoxicity in Wistar rat hippocampal neurons assessed as increase in intracellular ATP level pretreated with glutamate followed by compound addition measured after 24 hrs by CellTiter-Glo assay (reference value: 70 %); assay type: functional, Hippocampal neuron
HepG2 [14] = conditions: human, hepg2, 24 h
Description: Cytotoxicity against human HepG2 cells assessed as cell population mortality incubated for 24 hrs by SRB assay

[15] = Stability in human plasma at pH 7.4 assessed as half life at 200 uM measured up to 240 mins by HPLC-UV analysis; assay type: ADME, cell-free
HepG2 [16] = conditions: human, hepg2, 24 h; remark: listed apart in the source
Description: Cytotoxicity against human HepG2 cells assessed as total growth inhibition incubated for 24 hrs by SRB assay

[17] = Stability in human plasma at 200 uM measured after 240 mins by HPLC-UV analysis; assay type: ADME, cell-free; conditions: 4 h
Astrocyte [18] = test: Neuroprotective activity against glutamate-induced excitotoxicity in Wistar rat astrocytes co-cultured with neurons assessed as prevention of disruption of cytoskeleton at 10 uM pretreated with compound for 24 hrs followed by incubation with glutamate for 20 mins by fluorescence based analysis; assay type: functional, cell-based; conditions: time 1460.0 min
[19] = Stability in human plasma assessed as compound remaining at 200 uM incubated for 240 mins by HPLC-UV analysis; assay type: ADME, cell-free; conditions: read-out: Stability
Astrocyte [20] = test: Neuroprotective activity against glutamate-induced excitotoxicity in Wistar rat astrocytes co-cultured with neurons assessed as protection against cell injury at 10 uM pretreated with compound for 24 hrs followed by incubation with glutamate for 20 mins by fluorescence based analysis; assay type: functional; conditions: time 1460.0 min
Astrocyte [21] = test: Neuroprotective activity against glutamate-induced excitotoxicity in Wistar rat astrocytes co-cultured with neurons assessed as prevention of collapse of dendritic spines at 10 uM pretreated with glutamate followed by compound addition measured after 24 hrs by fluorescence based analysis; assay type: functional, cell-based
[22] = Stability in human plasma assessed as compound degradation at 200 uM measured after 240 mins by HPLC-UV analysis; assay type: ADME, cell-free; conditions: read-out: Drug degradation
Astrocyte [23] = test: Neuroprotective activity against glutamate-induced excitotoxicity in Wistar rat astrocytes co-cultured with neurons assessed as prevention of retraction of dendritic spines at 10 uM pretreated with glutamate followed by compound addition measured after 24 hrs by fluorescence based analysis; assay type: functional, cell-based
Astrocyte [24] = test: Neuroprotective activity against glutamate-induced excitotoxicity in Wistar rat astrocytes assessed as decrease in LDH release at 10 uM pretreated with glutamate followed by compound addition measured after 24 hrs by spectrophotometric analysis relative to control; assay type: functional; parameters: scale not given: the % may be the effect or the level left
Astrocyte [25] = test: Neuroprotective activity against glutamate-induced excitotoxicity in Wistar rat astrocytes co-cultured with neurons assessed as prevention of collapse of dendritic spines at 10 uM pretreated with compound for 24 hrs followed by incubation with glutamate for 20 mins by fluorescence based analysis; assay type: functional, cell-based; conditions: time 1460.0 min
Astrocyte [26] = test: Neuroprotective activity against glutamate-induced excitotoxicity in Wistar rat astrocytes co-cultured with neurons assessed as prevention of retraction of dendritic spines at 10 uM pretreated with compound for 24 hrs followed by incubation with glutamate for 20 mins by fluorescence based analysis; assay type: functional, cell-based; conditions: time 1460.0 min
Astrocyte [27] = test: Neuroprotective activity against glutamate-induced excitotoxicity in Wistar rat astrocytes co-cultured with neurons assessed as prevention of disruption of cytoskeleton at 10 uM pretreated with glutamate followed by compound addition measured after 24 hrs by fluorescence based analysis; assay type: functional, cell-based

Chain of Cholinesterase (Equus caballus, UniProt P81908) (P81908 whole entry): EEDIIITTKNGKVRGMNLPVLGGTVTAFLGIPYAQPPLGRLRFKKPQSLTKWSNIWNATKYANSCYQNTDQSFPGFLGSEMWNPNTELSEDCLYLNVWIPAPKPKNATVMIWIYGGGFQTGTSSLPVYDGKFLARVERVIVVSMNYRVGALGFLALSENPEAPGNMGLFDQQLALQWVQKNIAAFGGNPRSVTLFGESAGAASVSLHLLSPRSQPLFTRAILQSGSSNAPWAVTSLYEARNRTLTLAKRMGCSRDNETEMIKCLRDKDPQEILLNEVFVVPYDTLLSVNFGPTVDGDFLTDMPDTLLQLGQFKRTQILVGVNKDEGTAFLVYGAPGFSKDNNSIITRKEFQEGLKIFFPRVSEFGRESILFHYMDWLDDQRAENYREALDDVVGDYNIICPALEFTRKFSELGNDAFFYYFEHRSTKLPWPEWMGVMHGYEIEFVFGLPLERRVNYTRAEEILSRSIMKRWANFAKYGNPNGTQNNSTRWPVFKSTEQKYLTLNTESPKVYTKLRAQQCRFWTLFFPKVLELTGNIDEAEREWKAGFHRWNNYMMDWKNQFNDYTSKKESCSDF
Chain of Cholinesterase (Homo sapiens, UniProt P06276) (P06276 whole entry): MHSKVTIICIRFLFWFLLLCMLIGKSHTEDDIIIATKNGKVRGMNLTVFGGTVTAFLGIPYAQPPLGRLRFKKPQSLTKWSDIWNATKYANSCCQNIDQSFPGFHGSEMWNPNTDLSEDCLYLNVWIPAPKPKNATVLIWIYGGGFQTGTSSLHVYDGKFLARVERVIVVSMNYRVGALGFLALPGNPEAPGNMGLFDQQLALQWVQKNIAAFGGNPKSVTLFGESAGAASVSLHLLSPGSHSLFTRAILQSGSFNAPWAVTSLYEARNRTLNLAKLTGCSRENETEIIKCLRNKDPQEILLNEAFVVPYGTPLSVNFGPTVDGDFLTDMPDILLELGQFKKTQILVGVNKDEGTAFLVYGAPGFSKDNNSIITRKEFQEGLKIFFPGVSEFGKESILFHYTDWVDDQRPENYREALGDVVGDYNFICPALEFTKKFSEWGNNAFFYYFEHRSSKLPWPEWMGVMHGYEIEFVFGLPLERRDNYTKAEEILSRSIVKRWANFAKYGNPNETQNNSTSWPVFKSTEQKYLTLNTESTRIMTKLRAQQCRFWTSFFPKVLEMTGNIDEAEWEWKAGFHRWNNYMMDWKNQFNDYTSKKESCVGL
Chain of Acetylcholinesterase (Homo sapiens, UniProt P22303) (P22303 whole entry): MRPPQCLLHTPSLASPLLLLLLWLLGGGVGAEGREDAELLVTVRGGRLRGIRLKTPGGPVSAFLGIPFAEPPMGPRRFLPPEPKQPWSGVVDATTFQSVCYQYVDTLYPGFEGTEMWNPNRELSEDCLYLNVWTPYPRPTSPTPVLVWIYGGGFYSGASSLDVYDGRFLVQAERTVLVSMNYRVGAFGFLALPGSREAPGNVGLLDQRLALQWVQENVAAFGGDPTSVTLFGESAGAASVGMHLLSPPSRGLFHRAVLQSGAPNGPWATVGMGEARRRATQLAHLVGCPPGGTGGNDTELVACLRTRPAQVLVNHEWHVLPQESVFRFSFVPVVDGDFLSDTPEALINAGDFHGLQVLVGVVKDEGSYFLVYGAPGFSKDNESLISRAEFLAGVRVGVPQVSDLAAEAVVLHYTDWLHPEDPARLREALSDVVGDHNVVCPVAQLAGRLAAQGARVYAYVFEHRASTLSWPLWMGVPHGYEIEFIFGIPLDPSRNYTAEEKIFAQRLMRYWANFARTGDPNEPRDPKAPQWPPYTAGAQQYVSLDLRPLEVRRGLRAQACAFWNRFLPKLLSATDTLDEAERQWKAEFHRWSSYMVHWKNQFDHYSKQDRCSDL
Chain of Acetylcholinesterase (Electrophorus electricus, UniProt O42275) (O42275 whole entry): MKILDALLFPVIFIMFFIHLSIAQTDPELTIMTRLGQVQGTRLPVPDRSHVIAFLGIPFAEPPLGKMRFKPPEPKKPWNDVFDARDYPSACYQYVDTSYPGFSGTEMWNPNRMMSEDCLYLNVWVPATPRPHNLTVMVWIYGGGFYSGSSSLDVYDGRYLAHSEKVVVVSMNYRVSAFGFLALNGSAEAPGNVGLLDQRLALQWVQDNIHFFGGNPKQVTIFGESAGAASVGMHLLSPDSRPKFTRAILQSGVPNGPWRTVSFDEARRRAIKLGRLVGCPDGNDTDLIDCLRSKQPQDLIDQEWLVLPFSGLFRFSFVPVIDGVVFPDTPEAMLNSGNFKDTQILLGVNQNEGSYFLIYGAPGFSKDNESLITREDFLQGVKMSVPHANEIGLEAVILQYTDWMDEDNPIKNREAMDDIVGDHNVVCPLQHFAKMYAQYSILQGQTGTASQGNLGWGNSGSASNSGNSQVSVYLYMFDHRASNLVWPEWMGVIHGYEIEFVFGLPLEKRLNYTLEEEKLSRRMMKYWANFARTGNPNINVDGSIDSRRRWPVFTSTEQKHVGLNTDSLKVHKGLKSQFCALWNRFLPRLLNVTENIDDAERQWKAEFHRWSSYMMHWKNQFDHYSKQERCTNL

SMILES: COc1ccc(OC)c(C(C#N)N2CCN(CC(=O)Nc3c4c(nc5ccccc35)CCC4)CC2)c1 (racemic)
- IC50 (Cholinesterase [1]): 1720 nM
- Activity (Cortical neurone [2]): 30.83%
- IC50 at 24 h [3]: 427000 nM
- Activity [3]: Toxic
- IC50 (Acetylcholinesterase [4]): Not_active
- Activity (Cortical neurone [5]): 63.52%
- Activity [6]: Non-toxic

SMILES: COc1ccc(C(C#N)N2CCN(CC(=O)Nc3c4c(nc5ccccc35)CCC4)CC2)c(OC)c1 (racemic)
- IC50 (Cholinesterase [1]): 910 nM
- Activity (Cortical neurone [2]): 44.97%
- IC50 at 24 h [3]: 364000 nM
- Activity [3]: Toxic
- IC50 (Acetylcholinesterase [4]): Not_active
- Activity (Cortical neurone [5]): 63.15%
- Activity [6]: Non-toxic

SMILES: COc1ccc(C(C#N)N2CCN(CC(=O)Nc3c4c(nc5ccccc35)CCC4)CC2)cc1OC (racemic)
- IC50 (Cholinesterase [1]): 440 nM
- Activity (Cortical neurone [2]): 38.98%
- IC50 at 24 h [3]: 260000 nM
- Activity [3]: Toxic
- IC50 (Acetylcholinesterase [4]): Not_active
- Activity (Cortical neurone [5]): 58.28%
- Activity [6]: Non-toxic

SMILES: COc1ccc(C(C#N)N2CCN(CC(=O)Nc3c4c(nc5ccccc35)CCC4)CC2)cc1 (racemic)
- IC50 (Cholinesterase [1]): 640 nM
- Activity (Cortical neurone [2]): 28.81%
- IC50 at 24 h [3]: 436000 nM
- Activity [3]: Toxic
- IC50 (Acetylcholinesterase [4]): Not_active
- Activity (Cortical neurone [5]): 40.71%
- Activity [6]: Non-toxic

SMILES: O=C(NCCCNc1c2c(nc3ccccc13)CCC2)c1cnc(Cl)c(Cl)c1
- IC50 (Acetylcholinesterase [7]): 52 nM
- IC50 (Cholinesterase [8]): 158 nM

SMILES: CN(C)c1ccc(C(C#N)N2CCN(CC(=O)Nc3c4c(nc5ccccc35)CCC4)CC2)cc1 (racemic)
- IC50 (Cholinesterase [1]): 410 nM
- Activity (Cortical neurone [2]): 22.03%
- IC50 at 24 h [3]: 218000 nM
- Activity [3]: Toxic
- IC50 (Acetylcholinesterase [4]; read-out: IC50): 480 nM
- Activity (Cortical neurone [5]): 34.63%
- Activity [6]: Non-toxic

SMILES: COc1cccc(C(C#N)N2CCN(CC(=O)Nc3c4c(nc5ccccc35)CCC4)CC2)c1OC (racemic)
- GI50 at 24 h (in vitro): 93600 nM
- permeability [9]: 58%
- Activity [10]: 31.11%
- Activity (Astrocyte [11]): ~33%
- IC50 (Cholinesterase [1]): 310 nM
- selectivity ratio at 24 h [12]: 8
- Activity [13]: 51.85%
- LC50 (HepG2 [14]): > 200000 nM
- Activity (Cortical neurone [2]): 47.45%
- IC50 at 24 h [3]: 476000 nM
- Activity [3]: Toxic
- half-life at 200 µM [15]: 4.8 h
- IC50 (Acetylcholinesterase [4]; read-out: IC50): 440 nM
- TGI (HepG2 [16]): 188160 nM
- Stability [17]: Stable
- Activity (Astrocyte [18]): Active
- remaining at 4 h, 200 µM [19]: 52.4%
- Activity (Astrocyte [20]): Active
- Activity (Astrocyte [21]): Active
- metabolised at 4 h, 200 µM [22]: ~48%
- Activity (Astrocyte [23]): Active
- Activity (Astrocyte [24]): ~52%
- Activity (Astrocyte [25]): Active
- Activity (Astrocyte [26]): Active
- Activity (Cortical neurone [5]): 71.05%
- Activity [6]: Non-toxic
- Activity (Astrocyte [27]): Active

SMILES: CC12CC3CC(C)(C1)CC(N)(C3)C2 [MEMANTINE]
- Activity [10]: 10.37%
- Activity [13]: 44.44%
- Activity (Cortical neurone [2]): 46.61%
- IC50 at 24 h [3]: 272000 nM
- Activity (Cortical neurone [5]): 36.84%

SMILES: COc1cc2c(cc1OC)CC(CN1CCN(CCCNc3c4c(nc5cc(Cl)ccc35)C[C@H]3C=C(C)C[C@@H]4C3)CC1)C2
- IC50 (Acetylcholinesterase [7]): 2.61 nM
- IC50 (Cholinesterase [8]): 349 nM

SMILES: COc1cc(OC)cc(C(C#N)N2CCN(CC(=O)Nc3c4c(nc5ccccc35)CCC4)CC2)c1 (racemic)
- IC50 (Cholinesterase [1]): 690 nM
- Activity (Cortical neurone [2]): 35.59%
- IC50 at 24 h [3]: 298000 nM
- Activity [3]: Toxic
- IC50 (Acetylcholinesterase [4]): Not_active
- Activity (Cortical neurone [5]): 62.67%
- Activity [6]: Non-toxic

SMILES: Cc1cc(=O)[nH]c2c1C(=O)C(NCNc1c3c(nc4ccccc14)CCCC3)=CC2=O
- IC50 (Acetylcholinesterase [7]): 11.1 nM
- IC50 (Cholinesterase [8]): 180 nM
